Results taken from PMC3834177 (Cancer Chemotherapy and Pharmacology, 2013).
Marks after values point to notes of the source that are not given here.

Legend:
[1] = cited from earlier work
[2] = Midostaurin PK when administered with rifampicin; conditions: for AUC0–inf, adjusted geometric mean / AUC0–last, adjusted geometric mean / C max, adjusted geometric mean / t 1/2, adjusted geometric mean / t max, median: plasma, n = 20
Method: These endogenous molecules served as exploratory biomarkers for CYP3A4 activity in vivo [21, 22].
A point estimate and the corresponding 90 % CI for the treatment effect (test vs reference) were calculated. These were anti-logged to obtain the GMR and respective 90 % CI. […] The median difference was estimated with the Hodges–Lehmann estimator and its respective exact two-sided 90 % CI. All formal comparative statistical analyses were performed using SAS software.
(§1) The concentration of ketoconazole in plasma was assessed using a validated LC–MS/MS assay with an LLOQ of 50.0 ng/mL (WuXi Pharmatech Co, Ltd, China). The concentration of rifampicin in plasma was measured using a validated LC–MS/MS assay with an LLOQ of 5.0 ng/mL (SGS, Cephac Europe, SAS). Plasma concentrations of midazolam and its metabolite 1′-hydroxymidazolam, which is generated by CYP3A4 and CYP3A5 in humans, were measured using a validated LC–MS/MS assay with an LLOQ of ≈0.100 ng/mL (SGS, Cephac Europe, SAS). The plasma concentration of 4β-hydroxycholesterol was measured using a validated LC–MS/MS assay with an LLOQ of 3.0 ng/mL (SGS, Cephac Europe, SAS). The concentrations of 6β-hydroxycortisol and cortisol in urine were determined using validated LC–MS/MS assays with an LLOQ of 10.0 ng/mL for 6β-hydroxycortisol and 1.0 ng/mL for cortisol. The ratio of 6β-hydroxycortisol to cortisol was subsequently calculated (SGS, Cephac Europe, SAS). See Supplementary Table 2 for detailed bioanalytical methods for all 3 studies.

[3] = test system: human serum protein α1-acid glycoprotein (AAG); design: method as in PMID 11230495; conditions: cited from earlier work
mutant FLT3 = conditions: in vitro; read-out: half-maximal inhibitory concentration (IC50), mutant FLT3; cited from earlier work
CYP3A4/5 = conditions: in vitro; read-out: IC50, CYP3A4/5 activity (midazolam 1′-hydroxylation); cited from earlier work
[4] = Midostaurin PK when administered with ketoconazole
Method: According to the US Food and Drug Administration, ketoconazole 400 mg once daily is the recommended dose to evaluate DDIs involving CYP3A4 inhibition. [drawing 1]
Adverse events (AEs) were recorded during the study and up to 1 month (28 days) after the end of study. Volunteers remained at the clinic until AEs were common toxicity criteria (CTC) grade ≤1.
A point estimate and the corresponding 90 % CI for the treatment effect were calculated for the test treatment compared with the reference. These were anti-logged to obtain the point estimate and the 90 % CI for the geometric mean ratio (GMR) on the untransformed scale. […] All ANOVAs were performed using SAS software (SAS Institute Inc., Cary, NC, USA).
as §1

[5] = Placebo + midostaurin arm, rifampicin study
[6] = plasma, Ketoconazole + midostaurin arm, n = 18
[7] = plasma, Placebo + midostaurin arm, ketoconazole study, n = 18

CN(C(=O)c1ccccc1)[C@@H]1C[C@H]2O[C@@](C)([C@@H]1O)n1c3ccccc3c3c4c(c5c6ccccc6n2c5c31)C(=O)NC4 [CGP62221]
major pathway for elimination [1]: Fecal excretion | decrease in exposure (AUClast) in midostaurin + rifampicin arm ([2]; compared with midostaurin alone): 13.0 fold | AUC0–inf, adjusted geometric mean ([2]; Placebo + midostaurin arm (midostaurin 50 mg once), rifampicin study): 35,146.80 ng h/mL | AUC0–last, adjusted geometric mean [2, 5]: 32,266.80 ng h/mL | C max, adjusted geometric mean [2, 5]: 631.46 ng/mL | t 1/2, adjusted geometric mean [2, 5]: 33.74 h | t max, median [2, 5]: 3.00 h | AUC0–inf, adjusted geometric mean ([2]; Rifampicin + midostaurin arm (midostaurin 50 mg once, rifampicin 600 mg daily)): 2,699.43 ng h/mL | AUC0–last, adjusted geometric mean ([2]; Rifampicin + midostaurin arm): 2,501.48 ng h/mL | C max, adjusted geometric mean ([2]; Rifampicin + midostaurin arm): 396.25 ng/mL | t 1/2, adjusted geometric mean ([2]; Rifampicin + midostaurin arm): 7.02 h | t max, median ([2]; Rifampicin + midostaurin arm): 1.50 h | bound to AAG [3]: 88–98% | IC50 (mutant FLT3): 26 nM | IC50 (CYP3A4/5): < 1000 nM | elimination t 1/2 in the presence of ketoconazole ([4]; compared with placebo): prolonged | t max, Hodges–Lehmann estimate of median difference (90 % distribution-free CI) ([4]; ketoconazole + midostaurin vs placebo + midostaurin): 114.0 (92.8, 116.0) h | AUC0–inf, adjusted geometric mean ([4]; plasma, Ketoconazole + midostaurin arm (midostaurin 50 mg once, ketoconazole 400 mg daily), n = 18): 110,234.87 ng h/mL | AUC0–last, adjusted geometric mean [4, 6]: 27,237.87 ng h/mL | C max, adjusted geometric mean [4, 6]: 329.76 ng/mL | t 1/2, adjusted geometric mean ([4]; plasma, Ketoconazole + midostaurin arm, for 4 volunteers only (flat terminal phase in others)): 142.01^b h | AUC0–inf, adjusted geometric mean ([4]; plasma, Placebo + midostaurin arm (midostaurin 50 mg once), ketoconazole study, n = 18): 31,366.63 ng h/mL | AUC0–last, adjusted geometric mean [4, 7]: 27,414.44 ng h/mL | C max, adjusted geometric mean [4, 7]: 586.78 ng/mL | t 1/2, adjusted geometric mean [4, 7]: 36.60 h | t max, median [4, 7]: 3.51 h
